From patent US7781565B2 (priority 2006, dated 2010)
Entries after “also recorded” stand apart in the source; their conditions may differ.

Test system: NCI-60 cell lines
Assay type: cell-based, human

| Substance | Cell Line the peptide is associated with (peptide recovered from phage library selection on this NCI-60 cell line) | Cell Line (NCI-60 cell line the peptide is associated with) | Cell Line with which the peptide (and its tripeptide motif) is associated | Cell Line (NCI-60 cell line the peptide and its motif are associated with) |
| --- | --- | --- | --- | --- |
| ALVSTIL | UO31 Renal | – | – | – |
| ALVSVAG | – | SF-295 CNS | – | – |
| AMRPGRL | – | – | RPMI-8226-Leukemia | – |
| ANAASSP | – | – | – | SK-MEL-5 Melanoma |
| ANASGVR | – | – | – | M14 Melanoma |
| ANGSSKK | MDA-MB-231 Breast | – | – | – |
| ANGVLEL | – | – | Molt-4-Leukemia | – |
| APGRLGP | – | – | – | OVCAR-4 Ovarian |
| APLRSGR | – | – | EKVX-Lung | – |
| ARAGSTF | – | – | – | A498 Renal |
| ARAIGLG | – | – | Molt-4-Leukemia | – |
| ARAMGLR | – | – | Hop-62-Lung | – |
| ARGGESA | – | – | – | SK-OV-3-3 Ovarian |
| ARGIVRV | – | SW620-Colon | – | – |
| ARGNVRF | MDA-MB-231 Breast | – | – | – |
| ARGRDEG | UO31 Renal | – | – | – |
| ARGRGSQ | – | – | – | PC3 Prostate |
| ARGSLRV | – | SNB-19 CNS; also recorded: SF-539 CNS | – | – |
| ARGSWRE | TK-10 Renal | – | – | – |
| ARGTMTG | ACHN Renal | – | – | – |
| ARGVAEY | – | SF-295 CNS | – | – |
| ARGVLLM | – | – | CCRF-CEM Leukemia | – |
| ARGVSAP | – | KM-12C Colon | – | – |

| Substance | Cell Line the peptide is associated with (peptide recovered from phage library selection on this NCI-60 cell line) | Cell Line (NCI-60 cell line the peptide is associated with) | Cell Line with which the peptide (and its tripeptide motif) is associated | Cell Line (NCI-60 cell line the peptide and its motif are associated with) |
| --- | --- | --- | --- | --- |
| ARHGSSV | – | – | – | M14 Melanoma |
| ARLLRGG | – | – | – | DU-145 Prostate |
| ARLRASR | – | – | – | PC3 Prostate |
| ARLSLEL | TK-10 Renal | – | – | – |
| ARNAASP | – | – | A549-Lung | – |
| ARRGLGL | – | SNB-75 CNS | – | – |
| ARRGSGL | – | MALME-3M Melanoma | – | MALME-3M Melanoma |
| ARRGVLG | – | COLO-205-Colon | – | – |
| ARSSHRA | – | HCT-116 Colon | – | – |
| ARSSIVR | – | SF-268 CNS | – | – |
| ARVGVSP | – | – | H322-Lung | – |
| ARVSGRV | – | – | H23-Lung | – |
| ARYSLRS | – | – | – | 786-0 Renal |
| ASAGAVS | – | – | – | 786-0 Renal |
| ASAVSGR | – | HT-29 Colon | – | – |
| ASEGGRA | – | – | – | SK-OV-3-3 Ovarian |
| ASGLVVT | – | SNB-75 CNS | – | – |
| ASGRVAN | – | HCT-116 Colon | – | – |
| ASGTLLR | – | – | – | SK-MEL-28 Melanoma |
| ASLHHRR | – | SW620-Colon | – | – |
| ASLPMLH | ACHN Renal | – | – | – |
| ASLPPRA | – | – | EKVX-Lung | – |
| ASLPVLD | – | – | – | M14 Melanoma |

| Substance | Cell Line the peptide is associated with (peptide recovered from phage library selection on this NCI-60 cell line) | Cell Line (NCI-60 cell line the peptide is associated with) | Cell Line with which the peptide (and its tripeptide motif) is associated | Cell Line (NCI-60 cell line the peptide and its motif are associated with) |
| --- | --- | --- | --- | --- |
| ASLRYYV | – | – | SR Leukemia | – |
| ASLSVVI | UO31 Renal | – | – | – |
| ASLVARN | – | – | – | SK-OV-3-3 Ovarian |
| ASPPLRS | – | – | – | A498 Renal |
| ASVRAGR | – | – | Molt-4-Leukemia | – |
| ASYAGLV | – | – | – | IGROV1 Ovarian |
| ATGRVLG | – | – | Molt-4-Leukemia | – |
| ATGSGSV | – | – | – | PC3 Prostate |
| ATIPGGS | – | LOX-IMVI Melanoma | – | – |
| ATLDGVS | – | – | – | SK-OV-3-3 Ovarian |
| AVALGGS | – | – | – | UACC 257 Melanoma |
| AVDGLRL | – | – | SR Leukemia | – |
| AVEGRGS | – | HCT-116 Colon | – | – |
| AVFRASR | CAIK-1 Renal | – | – | – |
| AVGRGSG | – | – | Hop-92-Lung | – |
| AVGVSAA | MDA-MB-231 Breast | – | – | – |
| AVHSGRL | ACHN Renal | – | – | – |
| AVLVAGG | – | – | CCRF-CEM Leukemia | – |
| AVRGGRP | – | – | Hop-92-Lung | – |
| AVRGVAR | – | – | HL-60-Leukemia | – |
| AVSGRGW | – | – | Molt-4-Leukemia | – |
| AVSGRSL | – | – | – | M14 Melanoma |
| AVSKRLP | – | – | H522-Lung | – |

| Substance | Cell Line the peptide is associated with (peptide recovered from phage library selection on this NCI-60 cell line) | Cell Line (NCI-60 cell line the peptide is associated with) | Cell Line with which the peptide (and its tripeptide motif) is associated | Cell Line (NCI-60 cell line the peptide and its motif are associated with) |
| --- | --- | --- | --- | --- |
| AVSLAWQ | T-47D Breast | – | – | – |
| AVSLVVL | – | – | – | OVCAR-8 Ovarian |
| AVWGGLG | – | – | H226-Lung | – |
| AVWRLSH | – | – | H322-Lung | – |
| AVYRAGR | – | – | H522-Lung | – |
| AVYVGRL | NCI/ADR-RES Breast | – | – | – |
| AWAGGDM | – | – | – | DU-145 Prostate |
| AWLLSGR | – | – | – | UACC 257 Melanoma |
| AWRHAGG | – | SNB-19 CNS; also recorded: SF-539 CNS | – | – |
| AYYSLRS | – | KM-12C Colon | – | – |
| CAGRARR | – | SNB-75 CNS | – | – |
| CGARGAA | – | – | H322-Lung | – |
| CGAVAEW | – | – | – | PC3 Prostate |
| CGEGLVV | – | – | – | DU-145 Prostate |
| CHARGVT | – | – | Molt-4-Leukemia | – |
| CMAGSQD | SN12C Renal | – | – | – |
| CMLRSAT | – | – | – | SK-MEL-2 Melanoma |
| CPGSGII | – | LOX-IMVI Melanoma | – | – |
| CQGLVLQ | – | – | K-562-Leukemia | – |
| CRGSIGA | BT-549 Breast | – | – | – |
| CRRSSLL | – | – | – | SK-MEL-2 Melanoma |
| CTAGSVS | – | – | – | IGROV1 Ovarian |
| CVGLGCH | – | – | – | OVCAR-4 Ovarian |

| Substance | Cell Line the peptide is associated with (peptide recovered from phage library selection on this NCI-60 cell line) | Cell Line (NCI-60 cell line the peptide is associated with) | Cell Line with which the peptide (and its tripeptide motif) is associated | Cell Line (NCI-60 cell line the peptide and its motif are associated with) |
| --- | --- | --- | --- | --- |
| DAGGMDL | – | HT-29 Colon | – | – |
| DAGRTID | – | – | Hop-62-Lung | – |
| DAGSDRR | – | – | EKVX-Lung | – |
| DAVRGPS | – | – | – | IGROV1 Ovarian |
| DDGRVHR | BT-549 Breast | – | – | – |
| DEGGSRW | – | – | – | IGROV1 Ovarian |
| DEGLRSR | – | HCT-116 Colon | – | – |
| DELGSVQ | TK-10 Renal | – | – | – |
| DENRAGL | – | – | – | DU-145 Prostate |
| DFTLGSS | MDA-MB-231 Breast | – | – | – |
| DGAGSLR | – | – | – | OVCAR-5 Ovarian |
| DGAVILH | – | – | – | UACC 257 Melanoma |
| DGEGAGL | – | SNB-75 CNS | – | – |
| DGGGRVG | CAIK-1 Renal | – | – | – |
| DGGLNDC | – | – | – | OVCAR-5 Ovarian |
| DGGRRSS | – | – | EKVX-Lung | – |
| DGGRRTD | – | HCT-15 Colon | – | – |
| DGGSLVV | – | LOX-IMVI Melanoma | – | – |
| DGLVPVA | – | – | – | IGROV1 Ovarian |
| DGPSCVI | – | – | – | UACC62 Melanoma |
| DGPSGCS | – | SNB-75 CNS | – | – |
| DGSVLVE | – | – | Molt-4-Leukemia | – |
